These results are taken from patent publication US9399646B2 (Genentech, Inc., priority 2010, dated 2016).

In one assay the test system is MCF-7 cells. Description: Breast cancer cell viability assay (CellTiter-Glo, 5 days). Format: cell-based. The conditions noted are these: 5 days' compound exposure; for IC50: Homo sapiens, MCF7, 120 h. Here is the method:
MCF-7 cells were adjusted to a concentration of 20,000 cells per mL in RPMI containing 10% FBS and 20 mM HEPES. 16 microliters of the cell suspension (320 cells) was added to each well of a 384 well plate, and the cells were incubated overnight to allow the cells to adhere. The following day an eleven point, serial semilog dilution of each compound was added to the cells in 16 μL at a final concentration ranging from 0.3-0.000003 μM. After 5 days' compound exposure, 16 μL of CellTiter-GLo (Promega, Madison Wis.) was added to the cells the relative luminescence units (RLUs) of each well was determined CellTiter-Glo added to 32 μL of medium without cells was used to obtain a background value. The Percent viability of each sample was determined as follows: (RLU sample-RLU background/RLU untreated cells-RLU background)×100=% viability.
In general terms: Cellular ATP, detected with luciferase, serves as a proxy for viable cell number.

The next assay concerns the target T1, ER-α in MCF-7 cells (Homo sapiens, UniProt P03372).
T1 sequence (P03372 1-595): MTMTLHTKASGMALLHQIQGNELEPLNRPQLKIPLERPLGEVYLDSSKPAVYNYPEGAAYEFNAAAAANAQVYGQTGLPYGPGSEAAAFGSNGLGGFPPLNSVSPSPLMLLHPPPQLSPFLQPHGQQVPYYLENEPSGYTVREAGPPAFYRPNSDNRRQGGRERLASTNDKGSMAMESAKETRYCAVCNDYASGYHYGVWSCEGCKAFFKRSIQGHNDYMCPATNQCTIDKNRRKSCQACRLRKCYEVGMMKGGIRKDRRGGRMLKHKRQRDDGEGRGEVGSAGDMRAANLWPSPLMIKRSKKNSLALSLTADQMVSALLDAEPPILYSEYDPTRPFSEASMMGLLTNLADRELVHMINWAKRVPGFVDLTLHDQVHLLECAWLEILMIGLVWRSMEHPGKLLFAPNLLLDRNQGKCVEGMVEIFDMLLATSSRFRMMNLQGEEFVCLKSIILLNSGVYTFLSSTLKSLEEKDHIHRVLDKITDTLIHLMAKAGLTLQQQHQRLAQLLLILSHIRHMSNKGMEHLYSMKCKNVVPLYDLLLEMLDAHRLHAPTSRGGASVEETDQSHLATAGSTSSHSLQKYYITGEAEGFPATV
Description: Breast cancer cell ER-α in cell western assay (SP1). The format is cell-based. More on the design: endogenous in cells; host or cells: MCF-7. The conditions noted are these: 4 or 24 hr post compound addition; for Emax: MCF7, SP1 antibody, read-out: ER-α In Cell Western Assay (SP1) Max Response; for DC50: SP1 antibody, read-out: ER-α In Cell Western Assay (SP1) IC50. The method, then: MCF-7 cells were adjusted to a concentration of 200,000 cells per mL in RPMI containing 10% charcoal-stripped FBS and 20 mM HEPES. 16 microliters of the cell suspension (3200 cells) was added to each well of a poly-D-lysine 384 well plate, and the cells were incubated overnight to allow the cells to adhere. The following day an eleven point, serial semilog dilution of each compound was added to the cells in 16 μL at a final concentration ranging from 0.3-0.000003 μM. At 4 or 24 hr post compound addition, the cells were fixed (10% formalin in PBS) for 20 minutes. Cells were permeablized in PBS 0.1% Triton and blocked with LICOR blocking buffer (50 μl/well, 90°). The wells were then incubated overnight at 4° C. with SP1 rabbit monoclonal Ab (Thermo Scientific) diluted 1:1000 in LICOR blocking buffer/0.1% Tween-20. Wells which were treated with blocking buffer with Tween but no antibody were used as a background control. Wells were washed with 0.1% Tween-20/PBS and then incubated in goat anti-rabbit IRDye™ 800CW (LICOR Inc.; 1:1000) and DRAQ5 DNA dye (1:2000 for 2 mM stock) diluted in LICOR blocking buffer containing 0.1% Tween-20 and 0.01% SDS for 60 minutes. Cells were washed (50 μl/well, 5′ each) in 0.1% Tween-20/PBS. Plates were scanned on a LICOR Odyssey infrared imaging system. Integrated intensities in the 800 nm channel and 700 nm channel were measured to determine levels of ER and DNA respectively. Percent ER levels were determined as follows: (Integrated intensity 800 nm sample/integrated intensity 700 nm sample)/(Integrated intensity 800 nm untreated cells/integrated intensity 700 nm untreated cells)×100=% ER levels.

Bounds are passed on as bounds.

Usually IC50 stands for the concentration that inhibits the measured activity by half. High values mean weaker potency, low ones greater potency. `CC/C(=C(/c1ccc(/C=C/C(=O)O)cc1)c1ccc2c(c1)CCC(=O)N2)c1ccccc1` [Compound 100, (E)-3-(4-((E)-1-(2-Oxo-1,2,3,4-tetrahydroquinolin-6-yl)-2-phenylbut-1-en-1-yl)phenyl)acrylic acid]: in the assay on MCF-7 cells, the “MCF7 Viability Assay Max Response” value is recorded as “++ (++ = a single % value ≧ 40%)” and the IC50 is greater than 100 nM. Besides, on ER-α in MCF-7 cells, the Emax was no less than 40% and the DC50 is greater than 100 nM.
As to `CC/C(=C(/c1ccc(/C=C/C(=O)O)cc1)c1ccc2c(c1)COC(=O)N2)c1ccccc1` [Compound 101, (E)-3-(4-((E)-1-(2-Oxo-2,4-dihydro-1H-benzo[d][1,3]oxazin-6-yl)-2-phenylbut-1-en-1-yl)phenyl)acrylic acid], in the assay on MCF-7 cells, the “MCF7 Viability Assay Max Response” value is “++ (++ = a single % value ≧ 40%)” and the IC50 was greater than 100 nM. Also, at ER-α in MCF-7 cells, the Emax is no less than 40% and the DC50 is greater than 100 nM.
For the molecule `CC/C(=C(/c1ccc(/C=C/C(=O)O)cc1)c1cccc2[nH]c(=O)ccc12)c1ccccc1` [Compound 102, (E)-3-(4-((E)-1-(2-Oxo-1,2-dihydroquinolin-5-yl)-2-phenylbut-1-en-1-yl)phenyl)acrylic acid], in the assay with MCF-7 cells, the “MCF7 Viability Assay Max Response” value was “+ (+ = a single % value < 40%)” and the IC50 was greater than 100 nM. Besides, at ER-α in MCF-7 cells, the Emax is no less than 40% and the DC50 was greater than 100 nM.
`CC/C(=C(/c1ccc(/C=C/C(=O)O)cc1)c1ccc2c(c1)SCC(=O)N2)c1ccccc1` [Compound 103, (E)-3-(4-((E)-1-(3-Oxo-3,4-dihydro-2H-benzo[b][1,4]thiazin-7-yl)-2-phenylbut-1-en-1-yl)phenyl)acrylic acid]: in the assay on MCF-7 cells, the “MCF7 Viability Assay Max Response” value is given as “++ (++ = a single % value ≧ 40%)” and the half-inhibitory concentration (IC50) was greater than 100 nM. On ER-α in MCF-7 cells, the Emax is no less than 40% and the DC50 is greater than 100 nM.
With `CC/C(=C(/c1ccc(/C=C/C(=O)O)cc1)c1ccc2c(c1)C(=O)NC2)c1ccccc1` [Compound 104, (E)-3-(4-((E)-1-(3-Oxoisoindolin-5-yl)-2-phenylbut-1-en-1-yl)phenyl)acrylic acid], in the assay with MCF-7 cells, the “MCF7 Viability Assay Max Response” value is recorded as “++ (++ = a single % value ≧ 40%)” and the IC50 was greater than 100 nM. Besides, on ER-α in MCF-7 cells, the Emax is no less than 40% and the DC50 was greater than 100 nM.
Consider `CC/C(=C(/c1ccc(/C=C/C(=O)O)cc1)c1ccc2[nH]c(=O)ccc2c1)c1ccccc1` [Compound 105, (E)-3-(4-((E)-1-(2-Oxo-1,2-dihydroquinolin-6-yl)-2-phenylbut-1-en-1-yl)phenyl)acrylic acid], for which, in the assay on MCF-7 cells, the “MCF7 Viability Assay Max Response” value was “++ (++ = a single % value ≧ 40%)” and the IC50 was greater than 100 nM. In addition, at ER-α in MCF-7 cells, the Emax was no less than 40% and the DC50 is greater than 100 nM.
For `CC/C(=C(/c1ccc(/C=C/C(=O)O)cc1)c1ccc2c(c1)OCC(=O)N2)c1ccccc1` [Compound 107, (E)-3-(4-((E)-1-(3-Oxo-3,4-dihydro-2H-benzo[b][1,4]oxazin-7-yl)-2-phenylbut-1-en-1-yl)phenyl)acrylic acid], in the assay on MCF-7 cells, the “MCF7 Viability Assay Max Response” value is on record as “++ (++ = a single % value ≧ 40%)” and the IC50 is greater than 100 nM. Further, on ER-α in MCF-7 cells, the Emax was no less than 40% and the DC50 was greater than 100 nM.
On to `CC/C(=C(/c1ccc(/C=C/C(=O)O)cc1)c1ccc2c(c1)CNC2=O)c1ccccc1` [Compound 110, (E)-3-(4-((E)-1-(1-Oxoisoindolin-5-yl)-2-phenylbut-1-en-1-yl)phenyl)acrylic acid], for which, in the assay with MCF-7 cells, the “MCF7 Viability Assay Max Response” value is given as “++ (++ = a single % value ≧ 40%)” and the IC50 was no more than 100 nM. Also, on ER-α in MCF-7 cells, the Emax was no less than 40% and the DC50 was no more than 100 nM.
With `CC/C(=C(/c1ccc(/C=C/C(=O)O)cc1)c1ccc2ncccc2c1)c1ccc(F)cc1` [Compound 118, (E)-3-(4-((E)-2-(4-Fluorophenyl)-1-(quinolin-6-yl)but-1-en-1-yl)phenyl)acrylic acid], in the assay with MCF-7 cells, the “MCF7 Viability Assay Max Response” value is “++ (++ = a single % value ≧ 40%)” and the IC50 was greater than 100 nM. Moreover, at ER-α in MCF-7 cells, the Emax is no less than 40% and the DC50 is greater than 100 nM.
Take `CC/C(=C(/c1ccc(/C=C/C(=O)O)cc1)c1ccc2[nH]ncc2n1)c1ccccc1` [Compound 120, (E)-3-(4-((E)-2-Phenyl-1-(1H-pyrazolo[4,3-b]pyridin-5-yl)but-1-en-1-yl)phenyl)acrylic acid]: in the assay with MCF-7 cells, the “MCF7 Viability Assay Max Response” value was “++ (++ = a single % value ≧ 40%)” and the IC50 is no more than 100 nM. In addition, at ER-α in MCF-7 cells, the Emax was no less than 40% and the DC50 was no more than 100 nM.
As for `CC/C(=C(/c1ccc(/C=C/C(=O)O)cc1)c1ccc2[nH]c(=O)[nH]c2c1)c1ccccc1` [Compound 122, (E)-3-(4-((E)-1-(2-Oxo-2,3-dihydro-1H-benzo[d]imidazol-5-yl)-2-phenylbut-1-en-1-yl)phenyl)acrylic acid], in the assay on MCF-7 cells, the “MCF7 Viability Assay Max Response” value is reported as “++ (++ = a single % value ≧ 40%)” and the IC50 was greater than 100 nM. On ER-α in MCF-7 cells, the Emax is no less than 40% and the DC50 was greater than 100 nM.
On to `CC/C(=C(/c1ccc(/C=C/C(=O)O)cc1)c1ccc2ccccc2c1)c1ccccc1` [Compound 123, (E)-3-(4-((E)-1-(Naphthalen-2-yl)-2-phenylbut-1-en-1-yl)phenyl)acrylic acid], for which, in the assay on MCF-7 cells, the “MCF7 Viability Assay Max Response” value is “++ (++ = a single % value ≧ 40%)” and the IC50 is greater than 100 nM. On ER-α in MCF-7 cells, the Emax is no less than 40% and the DC50 is no more than 100 nM.
On the same counts, the results for `CC/C(=C(/c1ccc(/C=C/C(=O)O)cc1)c1ccc2nccnc2c1)c1ccccc1` [Compound 124, (E)-3-(4-((E)-2-Phenyl-1-(quinoxalin-6-yl)but-1-en-1-yl)phenyl)acrylic acid] are “+ (+ = a single % value < 40%)”, greater than 100 nM, no less than 40% and greater than 100 nM.
Take `CC/C(=C(/c1ccc(/C=C/C(=O)O)cc1)c1ccn2nccc2c1)c1ccccc1` [Compound 125, (E)-3-(4-((E)-2-Phenyl-1-(pyrazolo[1,5-a]pyridin-5-yl)but-1-en-1-yl)phenyl)acrylic acid]: in the assay on MCF-7 cells, the “MCF7 Viability Assay Max Response” value was “++ (++ = a single % value ≧ 40%)” and the IC50 was greater than 100 nM. Moreover, on ER-α in MCF-7 cells, the Emax was no less than 40% and the DC50 is greater than 100 nM.
For the molecule `CC/C(=C(/c1ccc(/C=C/C(=O)O)cc1)c1ccc2nccn2c1)c1ccccc1` [Compound 126, (E)-3-(4-((E)-1-(Imidazo[1,2-a]pyridin-6-yl)-2-phenylbut-1-en-1-yl)phenyl)acrylic acid], in the assay on MCF-7 cells, the “MCF7 Viability Assay Max Response” value is listed as “++ (++ = a single % value ≧ 40%)” and the IC50 was greater than 100 nM. Moreover, at ER-α in MCF-7 cells, the Emax was no less than 40% and the DC50 is no more than 100 nM.
The like results for `CC/C(=C(/c1ccc(/C=C/C(=O)O)cc1)c1ccc2nncn2c1)c1ccccc1` [Compound 127, (E)-3-(4-((E)-1-([1,2,4]Triazolo[4,3-a]pyridin-6-yl)-2-phenylbut-1-en-1-yl)phenyl)acrylic acid] were, in that order, “+ (+ = a single % value < 40%)”, greater than 100 nM, less than 40% and greater than 100 nM.
